# Source: paper PMC4519872, “Characterization of the Interaction between Gallic Acid and Lysozyme by Molecular Dynamics Simulation and Optical Spectroscopy” (International Journal of Molecular Sciences, 2015)
# Target: T1, lysozyme (LYS) (Gallus gallus, UniProt P00698)
# T1 construct: gene LYZ; commercial lysozyme, Sigma-Aldrich, >=18,000 U; single chain of 129 residues; docking model PDB 1GWD
# Assay: intrinsic fluorescence quenching titration
# Type: binding
# Details: 298 K; Tris-HCl pH 7.43; excitation 282 nm; inner-filter corrected; double-log
# Source text: intrinsic fluorescence quenching titration on lysozyme (LYS)
# T1 sequence (P00698 19-147): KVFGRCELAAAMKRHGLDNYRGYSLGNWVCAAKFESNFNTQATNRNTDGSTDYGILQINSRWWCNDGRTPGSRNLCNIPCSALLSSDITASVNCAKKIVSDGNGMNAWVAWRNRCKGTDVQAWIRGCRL
smiles,measurement,value
"O=C(O)c1cc(O)c(O)c(O)c1 [GA, 3,4,5-trihydroxybenzoic acid]",K,393000 L/mol
